Test results from patent US20250230147A1, “LACTAMS AS CBL-B INHIBITORS” (Genentech, Inc., priority 2021, published 2025).

What was measured:
c-Cbl = c-Cbl (Homo sapiens (Human), UniProt P22681); test: C-Cbl LCK Ub TR-FRET assay (c-cbl Lck HTRF); assay type: biochemical; settings: for (fold-selectivity): C-cbl Lck HTRF IC50 relative to Cbl-b Lck HTRF IC50
Summary of the method: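 Detection reagents added, brief spin, 20 min RT. IC50 fit normalized to no-LCK (low) and DMSO (high) controls.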

Cbl-b = Cbl-b (Homo sapiens (Human), UniProt Q13191); test: Cbl-b LCK Ub TR-FRET assay (Cbl-b Lck HTRF); assay type: biochemical
Summary of the method: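 TR-FRET (340 nm excitation, 615/665 nm emission) read after adding HA-ubiquitin–UBE2D2 thioester, anti-HA-D2 and streptavidin-Eu. Beforehand, compounds incubated 60 min with biotinylated Cbl-b, then 90 min with His-LCK and ATP (1 mM in 2× mix); IC50 from 10 concentrations, DMSO high and no-LCK low controls.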

Chain of c-Cbl (P22681 47-435): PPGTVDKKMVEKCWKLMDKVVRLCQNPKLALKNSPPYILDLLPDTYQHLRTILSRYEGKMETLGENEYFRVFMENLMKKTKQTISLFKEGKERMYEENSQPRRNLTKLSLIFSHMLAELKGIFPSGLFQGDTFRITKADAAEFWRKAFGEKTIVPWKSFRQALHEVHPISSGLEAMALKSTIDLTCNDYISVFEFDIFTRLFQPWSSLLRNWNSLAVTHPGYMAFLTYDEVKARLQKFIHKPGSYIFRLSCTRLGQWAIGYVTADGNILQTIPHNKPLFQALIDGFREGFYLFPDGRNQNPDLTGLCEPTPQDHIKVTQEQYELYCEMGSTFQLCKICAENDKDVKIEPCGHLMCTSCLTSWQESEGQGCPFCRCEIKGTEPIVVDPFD
Chain of Cbl-b (Q13191 40-426): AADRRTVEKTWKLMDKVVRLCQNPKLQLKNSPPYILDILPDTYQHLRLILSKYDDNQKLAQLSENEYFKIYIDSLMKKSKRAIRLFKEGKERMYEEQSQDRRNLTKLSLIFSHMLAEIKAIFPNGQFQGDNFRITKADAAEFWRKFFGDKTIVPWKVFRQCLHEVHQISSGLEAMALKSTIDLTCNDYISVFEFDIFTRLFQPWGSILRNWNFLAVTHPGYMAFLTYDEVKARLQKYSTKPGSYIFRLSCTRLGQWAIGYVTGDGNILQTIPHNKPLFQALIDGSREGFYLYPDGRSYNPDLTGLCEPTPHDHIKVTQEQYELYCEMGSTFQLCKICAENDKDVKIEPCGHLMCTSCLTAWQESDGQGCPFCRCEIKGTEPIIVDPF

IC50 (c-Cbl) [nM] | (fold-selectivity) (c-Cbl) [x] | IC50 (Cbl-b) [nM] | SMILES
640 | 3.1 | 210 | Cn1cnnc1[C@@H](F)C1(c2cccc(N3Cc4c(cc(CN5CC[C@H](F)C5)cc4C(F)(F)F)C3=O)c2)COC1 [Compound 83, 2-(3-(3-((S)-fluoro(4-methyl-4H-1,2,4-triazol-3-yl)methyl)oxetan-3-yl)phenyl)-6-(((S)-3-fluoropyrrolidin-1-yl)methyl)-4-(trifluoromethyl)isoindolin-1-one]
120 | 1.9 | 62 | Cn1cnnc1[C@H](F)C1(c2cccc(N3Cc4c(cc(CN5CC6CC6C5)cc4C(F)(F)F)C3=O)c2)COC1 (stereo partly drawn) [Compound 84, 6-((3-azabicyclo[3.1.0]hexan-3-yl)methyl)-2-(3-(3-((R)-fluoro(4-methyl-4H-1,2,4-triazol-3-yl)methyl)oxetan-3-yl)phenyl)-4-(trifluoromethyl)isoindolin-1-one]
370 | 2.0 | 180 | Cn1cnnc1[C@@H](F)C1(c2cccc(N3Cc4c(cc(CN5CC6CC6C5)cc4C(F)(F)F)C3=O)c2)COC1 (stereo partly drawn) [Compound 85, 6-((3-azabicyclo[3.1.0]hexan-3 yl)methyl)-2-(3-(3-((S)-fluoro(4-methyl-4H-1,2,4-triazol-3-yl)methyl)oxetan-3-yl)phenyl)-4-(trifluoromethyl)isoindolin-1-one]
3100 | 2.6 | 1200 | Cn1cnnc1[C@@H](F)C1(c2cccc(N3Cc4c(cc(CN5CC6CC5C6)cc4C(F)(F)F)C3=O)c2)COC1 [Compound 87, (S)-6-((2-azabicyclo[2.1.1]hexan-2-yl)methyl)-2-(3-(3-(fluoro(4-methyl-4H-1,2,4-triazol-3-yl)methyl)oxetan-3-yl)phenyl)-4-(trifluoromethyl)isoindolin-1-one]
210 | 2.1 | 100 | Cn1cnnc1[C@H](F)C1(c2cccc(N3Cc4c(cc(CN5CCOCC5)cc4C(F)(F)F)C3=O)c2)COC1 [Compound 88, (R)-2-(3-(3-(fluoro(4-methyl-4H-1,2,4-triazol-3-yl)methyl)oxetan-3-yl)phenyl)-6-(morpholinomethyl)-4-(trifluoromethyl)isoindolin-1-one]
720 | 2.3 | 310 | Cn1cnnc1[C@@H](F)C1(c2cccc(N3Cc4c(cc(CN5CCOCC5)cc4C(F)(F)F)C3=O)c2)COC1 [Compound 89, (S)-2-(3-(3-(fluoro(4-methyl-4H-1,2,4-triazol-3-yl)methyl)oxetan-3-yl)phenyl)-6-(morpholinomethyl)-4-(trifluoromethyl)isoindolin-1-one]
58 | 1.4 | 42 | CC(C)[C@H]1CN(Cc2cc3c(c(C(F)(F)F)c2)CN(c2cccc(C4([C@@H](F)c5nncn5C)COC4)c2)C3=O)CCN1 [Compound 90, 2-(3-(3((R)-fluoro(4-methyl-4H-1,2,4-triazol-3-yl)methyl)oxetan-3-yl)phenyl)-6-(((S)-3-isopropylpiperazin-1-yl)methyl)-4-(trifluoromethyl)isoindolin-1-one]
170 | 1.2 | 140 | CC(C)[C@H]1CN(Cc2cc3c(c(C(F)(F)F)c2)CN(c2cccc(C4([C@H](F)c5nncn5C)COC4)c2)C3=O)CCN1 [Compound 91]
24 | 1.2 | 20 | CC(C)[C@@H]1CN(Cc2cc3c(c(C(F)(F)F)c2)CN(c2cccc(C4([C@@H](F)c5nncn5C)COC4)c2)C3=O)CCN1 [Compound 92]
78 | 1.1 | 68 | CC(C)[C@@H]1CN(Cc2cc3c(c(C(F)(F)F)c2)CN(c2cccc(C4([C@H](F)c5nncn5C)COC4)c2)C3=O)CCN1 [Compound 93, 2-(3-(3-((S)-fluoro(4-methyl-4H-1,2,4-triazol-3-yl)methyl)oxetan-3-yl)phenyl)-6-(((R)-3-isopropylpiperazin-1-yl)methyl)-4-(trifluoromethyl)isoindolin-1-one]
200 | 1.1 | 180 | CC(C)[C@@H]1CNCCN1Cc1cc2c(c(C(F)(F)F)c1)CN(c1cccc(C3([C@@H](F)c4nncn4C)COC3)c1)C2=O [Compound 94, 2-(3-(3((R)-fluoro(4-methyl-4H-1,2,4-triazol-3-yl)methyl)oxetan-3-yl)phenyl)-6-(((R)-2-isopropylpiperazin-1-yl)methyl)-4-(trifluoromethyl)isoindolin-1-one]
410 | 1.5 | 270 | CC(C)[C@@H]1CNCCN1Cc1cc2c(c(C(F)(F)F)c1)CN(c1cccc(C3([C@H](F)c4nncn4C)COC3)c1)C2=O [Compound 95, 2-(3-(3-((S)-fluoro(4-methyl-4H-1,2,4-triazol-3-yl)methyl)oxetan-3-yl)phenyl)-6-(((R)-2-isopropylpiperazin-1-yl)methyl)-4-(trifluoromethyl)isoindolin-1-one]
18 | 1.5 | 12 | CC(C)[C@H]1CNCCN1Cc1cc2c(c(C(F)(F)F)c1)CN(c1cccc(C3([C@@H](F)c4nncn4C)COC3)c1)C2=O [Compound 96, 2-(3-(3((R)-fluoro(4-methyl-4H-1,2,4-triazol-3-yl)methyl)oxetan-3-yl)phenyl)-6-(((S)-2-isopropylpiperazin-1-yl)methyl)-4-(trifluoromethyl)isoindolin-1-one]
38 | 1.9 | 20 | CC(C)[C@H]1CNCCN1Cc1cc2c(c(C(F)(F)F)c1)CN(c1cccc(C3([C@H](F)c4nncn4C)COC3)c1)C2=O [Compound 97, 2-(3-(3-((S)-fluoro(4-methyl-4H-1,2,4-triazol-3-yl)methyl)oxetan-3-yl)phenyl)-6-(((S)-2-isopropylpiperazin-1-yl)methyl)-4-(trifluoromethyl)isoindolin-1-one]
340 | 2.0 | 170 | Cn1cnnc1C[C@]1(c2cccc(N3Cc4c(cccc4C(F)(F)F)C3=O)c2)C[C@@H](F)C1 [Compound 99, 2-(3-((1s,3r)-3-fluoro-1-((4-methyl-4H-1,2,4-triazol-3-yl)methyl)cyclobutyl)phenyl)-4-(trifluoromethyl)isoindolin-1-one]
380 | 1.9 | 190 | Cn1cnnc1C[C@]1(c2cccc(N3Cc4c(cccc4C(F)(F)F)C3=O)c2)C[C@H](F)C1 [Compound 100, 2-(3-((1r,3s)-3-fluoro-1-((4-methyl-4H-1,2,4-triazol-3-yl)methyl)cyclobutyl)phenyl)-4-(trifluoromethyl)isoindolin-1-one]
23 | 1.2 | 18 | Cn1cnnc1CC1(c2cccc(N3Cc4c(cc(CN5CC[C@@H](CCl)C5)cc4C(F)(F)F)C3=O)c2)COC1 [Compound 101, (R)-6-((3-(chloromethyl)pyrrolidin-1-yl)methyl)-2-(3-(3-((4-methyl-4H-1,2,4-triazol-3-yl)methyl)oxetan-3-yl)phenyl)-4-(trifluoromethyl)isoindolin-1-one]
25 | 1.4 | 18 | Cn1cnnc1CC1(c2cccc(N3Cc4c(cc(CN5CC[C@H](CCl)C5)cc4C(F)(F)F)C3=O)c2)COC1 [Compound 102, (S)-6-((3-(chloromethyl)pyrrolidin-1-yl)methyl)-2-(3-(3-((4-methyl-4H-1,2,4-triazol-3-yl)methyl)oxetan-3-yl)phenyl)-4-(trifluoromethyl)isoindolin-1-one]
22 | 1.5 | 15 | Cn1cnnc1[C@H](F)C1(c2cccc(N3Cc4c(cc(CN5CC(C)(CCl)C5)cc4C(F)(F)F)C3=O)c2)COC1 [Compound 103, (R)-6-((3-(chloromethyl)-3-methylazetidin-1-yl)methyl)-2-(3-(3-(fluoro(4-methyl-4H-1,2,4-triazol-3-yl)methyl)oxetan-3-yl)phenyl)-4-(trifluoromethyl)isoindolin-1-one]
89 | 1.9 | 48 | Cn1cnnc1[C@@H](F)C1(c2cccc(N3Cc4c(cc(CN5CC(C)(CCl)C5)cc4C(F)(F)F)C3=O)c2)COC1 [Compound 104, (S)-6-((3-(chloromethyl)-3-methylazetidin-1-yl)methyl)-2-(3-(3-(fluoro(4-methyl-4H-1,2,4-triazol-3-yl)methyl)oxetan-3-yl)phenyl)-4-(trifluoromethyl)isoindolin-1-one]
25 | 0.93 | 26 | Cn1cnnc1CC1(c2cccc(N3Cc4c(cc(CN5Cc6c[nH]nc6C5)cc4C(F)(F)F)C3=O)c2)CC(F)(F)C1 [Compound 105, 2-(3-(3,3-difluoro-1-((4-methyl-4H-1,2,4-triazol-3-yl)methyl)cyclobutyl)phenyl)-6-((2,6-dihydropyrrolo[3,4-c]pyrazol-5(4H)-yl)methyl)-4-(trifluoromethyl)isoindolin-1-one]
15 | 0.81 | 18 | Cn1cnnc1CC1(c2cccc(N3Cc4c(cc(CN5CCC6(CC6)C5)cc4C(F)(F)F)C3=O)c2)CC(F)(F)C1 [Compound 106, 6((5-azaspiro[2.4]heptan-5-yl)methyl)-2-(3-(3,3-difluoro-1-((4-methyl-4H-1,2,4-triazol-3-yl)methyl)cyclobutyl)phenyl)-4-(trifluoromethyl)isoindolin-1-one]
